Measured values published in ChEMBL document CHEMBL1201862, “PubChem BioAssay data set” (2004).
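Five concentrations, 48 hours, 96-well plates. Abbreviation: GI50, concentration required for 50% inhibition of growth.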 Activity calls are given as the source filed them. No stated cut-off is given here; in the data, active = GI50 up to about 1.1 µM and inactive = higher.

Tests used:
Assay in all cases: DTP human tumour cell line panel, 48 h
COLO 205 = test system: COLO 205
A549 = test system: A549
TK-10 = test system: TK-10
HCT-15 = test system: HCT-15
HCT-116 = test system: HCT-116
MOLT-4 = test system: MOLT-4
T47D = test system: T47D
SK-MEL-5 = test system: SK-MEL-5
K562 = test system: K562
KM12 = test system: KM12
CCRF-CEM = test system: CCRF-CEM
Hs-578T = test system: Hs-578T
MDA-MB-231 = test system: MDA-MB-231
NCI-H460 = test system: NCI-H460
CAKI-1 = test system: CAKI-1
DU-145 = test system: DU-145
SF-539 = test system: SF-539
NCI-H23 = test system: NCI-H23
SK-OV-3 = test system: SK-OV-3
RXF 393 = test system: RXF 393

## c1ccc(CCCN2C3CCC2CN(CCOC(c2ccccc2)c2ccccc2)C3)cc1
COLO 205
  GI50: 1.68 µM (inactive)
A549
  GI50: 13.3 µM (inactive)
TK-10
  GI50: 12.5 µM (inactive)
HCT-15
  GI50: 4.72 µM
HCT-116
  GI50: 7.05 µM (inactive)
MOLT-4
  GI50: 8.43 µM (inactive)
T47D
  GI50: 3.24 µM (inactive)
SK-MEL-5
  GI50: 3.3 µM (inactive)
K562
  GI50: 3.91 µM (inactive)
KM12
  GI50: 5.66 µM (inactive)
CCRF-CEM
  GI50: 9.82 µM (inactive)
Hs-578T
  GI50: 13.9 µM (inactive)
MDA-MB-231
  GI50: 8.3 µM (inactive)
NCI-H460
  GI50: 8.75 µM (inactive)
CAKI-1
  GI50: 11.3 µM (inactive)
DU-145
  GI50: 16.4 µM (inactive)
SF-539
  GI50: 8.39 µM (inactive)
NCI-H23
  GI50: 11.1 µM (inactive)
SK-OV-3
  GI50: 13.7 µM (inactive)

## c1ccc2sc(SSSc3nc4ccccc4s3)nc2c1
COLO 205
  GI50: > 100 µM (inactive)
A549
  GI50: > 100 µM (inactive)
TK-10
  GI50: > 100 µM (inactive)
HCT-15
  GI50: 27.7 µM
HCT-116
  GI50: > 100 µM (inactive)
MOLT-4
  GI50: 77.3 µM (inactive)
T47D
  GI50: 32 µM (inactive)
SK-MEL-5
  GI50: > 100 µM (inactive)
K562
  GI50: > 100 µM (inactive)
KM12
  GI50: > 100 µM (inactive)
CCRF-CEM
  GI50: 28.4 µM (inactive)
Hs-578T
  GI50: > 100 µM (inactive)
MDA-MB-231
  GI50: > 100 µM (inactive)
NCI-H460
  GI50: 44.7 µM (inactive)
CAKI-1
  GI50: > 100 µM (inactive)
DU-145
  GI50: > 100 µM (inactive)
RXF 393
  GI50: > 100 µM (inactive)
NCI-H23
  GI50: > 100 µM (inactive)
SK-OV-3
  GI50: > 100 µM (inactive)

## O=C(NC(Cc1c[nH]cn1)C(=O)N1CCCC1)C1CCCC1 (stereo unspecified)
COLO 205
  GI50: > 100 µM (inactive)
A549
  GI50: > 100 µM (inactive)
TK-10
  GI50: > 100 µM (inactive)
HCT-15
  GI50: > 100 µM
HCT-116
  GI50: > 100 µM (inactive)
MOLT-4
  GI50: > 100 µM (inactive)
T47D
  GI50: > 10 µM (inactive)
SK-MEL-5
  GI50: > 100 µM (inactive)
K562
  GI50: > 100 µM (inactive)
KM12
  GI50: > 100 µM (inactive)
CCRF-CEM
  GI50: > 100 µM (inactive)
Hs-578T
  GI50: 83.8 µM (inactive)
MDA-MB-231
  GI50: > 100 µM (inactive)
NCI-H460
  GI50: > 100 µM (inactive)
CAKI-1
  GI50: > 100 µM (inactive)
DU-145
  GI50: > 100 µM (inactive)
RXF 393
  GI50: > 100 µM (inactive)
NCI-H23
  GI50: > 100 µM (inactive)
SK-OV-3
  GI50: > 100 µM (inactive)

## COc1ccccc1/N=N/c1c(O)c(S(=O)(=O)O)cc2cc(S(=O)(=O)O)ccc12
COLO 205
  GI50: > 100 µM (inactive)
A549
  GI50: > 100 µM (inactive)
TK-10
  GI50: > 100 µM (inactive)
HCT-15
  GI50: > 100 µM
HCT-116
  GI50: > 100 µM (inactive)
MOLT-4
  GI50: > 100 µM (inactive)
T47D
  GI50: > 100 µM (inactive)
SK-MEL-5
  GI50: > 100 µM (inactive)
K562
  GI50: > 100 µM (inactive)
KM12
  GI50: > 100 µM (inactive)
CCRF-CEM
  GI50: > 100 µM (inactive)
Hs-578T
  GI50: > 100 µM (inactive)
MDA-MB-231
  GI50: > 100 µM (inactive)
CAKI-1
  GI50: > 100 µM (inactive)
DU-145
  GI50: > 100 µM (inactive)
RXF 393
  GI50: > 100 µM (inactive)
NCI-H23
  GI50: > 100 µM (inactive)
SK-OV-3
  GI50: > 100 µM (inactive)

## CC(=O)Nc1ccc(C(=O)NN2C(=O)CSC2c2ccc([N+](=O)[O-])cc2)cc1 (stereo unspecified)
COLO 205
  GI50: > 100 µM (inactive)
A549
  GI50: > 100 µM (inactive)
TK-10
  GI50: > 100 µM (inactive)
HCT-15
  GI50: > 100 µM
HCT-116
  GI50: > 100 µM (inactive)
MOLT-4
  GI50: > 100 µM (inactive)
T47D
  GI50: > 100 µM (inactive)
SK-MEL-5
  GI50: > 100 µM (inactive)
K562
  GI50: > 100 µM (inactive)
KM12
  GI50: > 100 µM (inactive)
CCRF-CEM
  GI50: > 100 µM (inactive)
Hs-578T
  GI50: > 100 µM (inactive)
MDA-MB-231
  GI50: 75.9 µM (inactive)
NCI-H460
  GI50: > 100 µM (inactive)
DU-145
  GI50: > 100 µM (inactive)
SF-539
  GI50: > 100 µM (inactive)
RXF 393
  GI50: > 100 µM (inactive)
NCI-H23
  GI50: > 100 µM (inactive)
SK-OV-3
  GI50: > 100 µM (inactive)

## O=C1OC(c2ccco2)=N/C1=C\c1cccc([N+](=O)[O-])c1
COLO 205
  GI50: > 100 µM (inactive)
A549
  GI50: > 100 µM (inactive)
TK-10
  GI50: > 100 µM (inactive)
HCT-15
  GI50: > 100 µM
HCT-116
  GI50: > 100 µM (inactive)
MOLT-4
  GI50: > 100 µM (inactive)
T47D
  GI50: > 100 µM (inactive)
SK-MEL-5
  GI50: > 100 µM (inactive)
K562
  GI50: > 100 µM (inactive)
KM12
  GI50: > 100 µM (inactive)
CCRF-CEM
  GI50: > 100 µM (inactive)
Hs-578T
  GI50: > 100 µM (inactive)
MDA-MB-231
  GI50: > 100 µM (inactive)
NCI-H460
  GI50: > 100 µM (inactive)
CAKI-1
  GI50: > 100 µM (inactive)
DU-145
  GI50: > 100 µM (inactive)
SF-539
  GI50: > 100 µM (inactive)
NCI-H23
  GI50: > 100 µM (inactive)
SK-OV-3
  GI50: > 100 µM (inactive)

## Cn1ncc2c(NCCc3ccccc3)nc(Cl)nc21
COLO 205
  GI50: 17.3 µM (inactive)
A549
  GI50: 20.4 µM (inactive)
TK-10
  GI50: 20.9 µM (inactive)
HCT-15
  GI50: 25.4 µM
HCT-116
  GI50: 27.8 µM (inactive)
MOLT-4
  GI50: 14.7 µM (inactive)
T47D
  GI50: 11.4 µM (inactive)
SK-MEL-5
  GI50: 17.6 µM (inactive)
K562
  GI50: 17.6 µM (inactive)
KM12
  GI50: 26.2 µM (inactive)
Hs-578T
  GI50: 8.93 µM (inactive)
MDA-MB-231
  GI50: 3.97 µM (inactive)
NCI-H460
  GI50: 15.6 µM (inactive)
CAKI-1
  GI50: 28.1 µM (inactive)
DU-145
  GI50: 44.9 µM (inactive)
RXF 393
  GI50: 17.1 µM (inactive)
NCI-H23
  GI50: 24.8 µM (inactive)
SK-OV-3
  GI50: 19.5 µM (inactive)
